Results taken from US20110144323A1, “AMORPHOUS AND CRYSTALLINE FORMS OF SMILAGENIN AND ITS HYDRATES” (PHYTOPHARM PLC, priority 2004, published 2011).

Experiment: Vapour sorption studies
Assay type: physicochemical
Description: As is well known, a channel hydrate is a hydrate in which the crystal lattice of the molecule forms a channel or cage enclosing a void which can wholly or partially accommodate water (or solvent) molecules. The stoichiometric (molar) ratio of smilagenin:water at any particular time will depend on such factors as the humidity of the surrounding atmosphere, as the water molecules are generally free to enter or leave the void.

C[C@@H]1CC[C@@]2(OC1)O[C@H]1C[C@H]3[C@@H]4CC[C@@H]5C[C@@H](O)CC[C@]5(C)[C@H]4CC[C@]3(C)[C@H]1[C@@H]2C [Crystalline Form VI, smilagenin]
hygroscopicity in vapour sorption study (FIG. 11): hygroscopic | water adsorbed, molar equivalents (at high humidity, i.e. a dihydrate): about 2 mol. eq. water | water adsorbed in vapour sorption study (at high humidity, water reversibly lost at low humidity (FIG. 11)): up to 9 % water
